pIC50: −log10 of the molar value. Values joined by “and” are separate entries in the source; they are usually repeats but may differ in a detail not shown here. Equal entries are not always repeated. Where two headings read alike, the source gives them in different places.
Assays:
Format in all cases: cell-based
[1] = system: NCI-H358 (KRAS-G12C) 3D spheroids; test: 3D spheroid formation assay (alamarBlue), NCI-H358
Procedure: (§1) 3D spheroid formation assays were performed in 96-well low-attachment, suspension culture plates (cat. no. 655185, Cellstar, Greiner Bio-One) under serum free conditions. About 1000 cells per well were seeded in 50 μL RPMI medium (cat. no. 52400–025, Gibco, ThermoFisher Scientific) containing 0.5% (v/v) MethoCult (cat. no. SF H4636, Stemcell technologies), 1X B27 (cat. no. 17504044, Gibco, ThermoFisher Scientific), 25 ng/mL EGF (cat. no. E9644, Sigma-Aldrich) and 25 ng/ mL FGF (cat. no. RP-8628, ThermoFisher Scientific). Cells were cultured for 3 days and then treated with compounds or vehicle control (DMSO 0.1% (v/v) in growth medium) for another 3 days. The cells were supplemented with fresh growth medium on the third day together with the drug treatment. Spheroid formation efficiency was analyzed by alamarBlue assay reagent (cat. no. DAL1100, ThermoFisher Scientific).
(§2) A 10% (v/v) final volume of alamarBlue reagent was added to each well of the plate and incubated for 4 h at 37°C. Then the fluorescence intensity (λexcitation 560 ± 5 nm and λemission 590 ± 5 nm) was measured using the FLUOstar OPTIMA plate reader (BMG Labtech, Germany).
(§3) (A) Heatmap of ATARiS gene sensitivity scores of two KRAS dependent cell lines (NCI-H358 and MDA-MB-231) and a BRAF dependent cell line (A375). Negative values (shaded red) indicate sensitivity of the cell line proliferation to the knockdown of shown genes, whereas positive scores (shaded blue) indicate insensitivity. (B) IC50 values for indicated compounds in Ras pathway mutant cell lines NCI-H358, MDA-MB231 and A375 grown as 3D spheroids under serum free conditions. […] Statistical comparisons were done using the average values across all three cell lines. […] Positive scores indicate synergistic drug interactions whereas negative scores would denote antagonistic drug interactions. A score of zero would indicate no antagonistic or synergistic effect. (D) Flow cytometric analysis of apoptosis in MDA-MB-231 cells. […] Benzethonium chloride and DMSO treated cells were used as positive and negative controls, respectively, for setting the gates. Percentage of total apoptotic cells (early and late stage) from two biological repeats (mean ± SD) is presented. Statistical analysis was performed using Fisher’s exact test comparing the total number of viable and apoptotic cells from two biological repeats. (E) Effect of inhibitors on cellular apoptosis studied using Caspase-3/7Glo assay. […] The caspase-3/7 activity was measured as a luminescence read-out and normalized to the vehicle control, 0.05% (v/v) DMSO. […] GAPDH detection was used as loading control.

[2] = system: A375 (BRAF-V600E) 3D spheroids; test: 3D spheroid formation assay (alamarBlue), A375
Procedure: as §1, §2, §3

[3] = system: MDA-MB-231 (KRAS-G13D) 3D spheroids; test: 3D spheroid formation assay (alamarBlue), MDA-MB-231
Procedure: as §1, §2, §3

[4] = system: H-RasG12V (Rluc8-/GFP2-tagged) in HEK-293 EBNA cells; test: H-RasG12V nanoclustering-BRET assay; settings: for H-RasG12V BRET: compounds 20 μM, FTI-277 1 μM, OphA 2.5 μM, 24 h
[5] = system: K-RasG12V (Rluc8-/GFP2-tagged) in HEK-293 EBNA cells; test: K-RasG12V nanoclustering-BRET assay; settings: for K-RasG12V BRET: compounds 20 μM, FTI-277 1 μM, OphA 2.5 μM, 24 h
MDA-MB-231 cells [6] = test: Flow cytometry-based apoptosis assay (Annexin V-FITC / 7-AAD); settings: DT-061 10 μM, calmidazolium 5 μM or combination, 24 h
Procedure: MDA-MB-231 cells were grown for 24 h in complete RPMI medium. The next day the cells were treated with inhibitors for 24 h. […] The cells were labelled using the Annexin V-FITC / 7-AAD apoptosis-detection kit (Beckman-Coulter, cat. no. B60224-AB) according to the manufacturer’s instruction.
as §3, with “Negative” for “(A) Heatmap of ATARiS gene sensitivity scores of two KRAS dependent cell lines (NCI-H358 and MDA-MB-231) and a BRAF dependent cell line (A375). Negative”

[7] = system: pERK/ERK in MIA PaCa-2 cells; test: Western blot of MAPK signaling output (pERK/ERK); settings: for normalized pERK/ERK ratio %: MIA PaCa-2 + EGF
HEK-293 EBNA cells = test: 2D cell viability assay (alamarBlue), HEK-293 EBNA; settings: 72 h
MDA-MB-231 cells [8] = test: 2D cell viability assay (alamarBlue), MDA-MB-231; settings: MDA-MB-231, 72 h
MIA PaCa-2 cells = test: 2D cell viability assay (alamarBlue), MIA PaCa-2; settings: MIA PaCa-2, 72 h
[9] = Homo sapiens, A-375, 72 h, A375 3D spheroids, serum free, 3 days treatment, replicates N1, N2
[10] = Homo sapiens, A-375, A375 3D spheroids, Mean, n = 2
[11] = A/D plasmid ratio 4/1, individual replicates N1.1-N2.4
[12] = A/D plasmid ratio 4/1, individual replicates N1.1-N3.4
[13] = early and late stage, replicates N1, N2
[14] = Homo sapiens, NCI-H358, NCI-H358 3D spheroids, Mean, n = 2, read-out: IC50 values
[15] = NCI-H358 3D spheroids, serum free, 3 days treatment, replicates N1, N2, read-out: IC50 values
[16] = H-RasG12V nanoclustering-BRET dose response (0.1–80 μM; OphA 0.3–20 μM), replicates
[17] = H-RasG12V nanoclustering-BRET, mean
[18] = A375 3D spheroids, serum free, 3 days treatment, replicates N1, N2
[19] = Homo sapiens, MDA-MB-231, MDA-MB-231 3D spheroids, Mean, n = 2, read-out: IC50 values
[20] = MDA-MB-231 3D spheroids, serum free, 3 days treatment, replicates N1, N2, read-out: IC50 values
[21] = K-RasG12V nanoclustering-BRET dose response (0.1–80 μM; OphA 0.3–20 μM), replicates
[22] = K-RasG12V nanoclustering-BRET, mean

SMILES	pIC50 [2, 9]	pIC50 [2, 10]	H-RasG12V BRET [4, 11]	H-RasG12V BRET ([4]; mean)	K-RasG12V BRET [5, 12]	K-RasG12V BRET ([5]; mean)	DSS3 BRET score [4, 16]	DSS3 BRET score [4, 17]	DSS3 BRET score [5, 21]	DSS3 BRET score [5, 22]	other results
C=CC(=O)N1CCN(c2ncnc3c(F)c(-c4c(O)cccc4F)c(Cl)cc23)CC1 [ARS-1620]	< 4.40	< 4.40									pIC50 ([1]; Homo sapiens, NCI-H358, 72 h, read-out: IC50 values, NCI-H358 3D spheroids, serum free, 3 days treatment, replicates N1, N2): 6.22; pIC50 ([1]; Homo sapiens, NCI-H358, read-out: IC50 values, NCI-H358 3D spheroids, Mean, n = 2): 6.34; pIC50 ([1]; read-out: IC50 values, NCI-H358 3D spheroids, serum free, 3 days treatment, replicates N1, N2): 6.49; pIC50 ([3]; Homo sapiens, MDA-MB-231, 72 h, read-out: IC50 values): < 4.40; pIC50 ([3]; Homo sapiens, MDA-MB-231, read-out: IC50 values): < 4.40
COC(=O)[C@H](CCSC)NC(=O)c1ccc(NC[C@@H](N)CS)cc1-c1ccccc1 [FTI-277]			55.9675 and 54.6788 and 57.991 and 55.5016 and 58.8518 and 57.6476 and 60.7427 and 58.4164	57.47	72.2368 and 88.8749 and 88.6228 and 90.7219 and 73.1065 and 73.006 and 71.9005 and 74.3032 and 75.1082 and 75.0152 and 73.992 and 87.4754	78.7					
CC(C)(C)CC(C)(C)c1ccc(OCCOCC[N+](C)(C)Cc2ccccc2)cc1 [benzethonium Cl, Benzethonium chloride]											apoptotic cells (%) (MDA-MB-231 cells [6]; [13]): 93.0493% and 96.0998%; apoptotic cells (%) (MDA-MB-231 cells [6]; mean): 94.57%
Clc1ccc(C(c2ccc(Cl)cc2)n2cc[n+](CC(OCc3ccc(Cl)cc3Cl)c3ccc(Cl)cc3Cl)c2)cc1 (stereo not shown) [calmidazolium]	5.96	5.88	65.4602 and 65.6531 and 66.0593 and 64.447 and 71.623 and 67.855 and 69.3028 and 69.9269	67.54	56.1219 and 37.0972 and 36.7653 and 36.0615 and 56.3093 and 55.7392 and 55.8068 and 41.7975 and 44.4475 and 43.3047 and 43.8108 and 37.7034	45.41	4.1 and 3.4	3.75	7.4 and 5.3 and 6.1	6.27	pIC50 ([1]; Homo sapiens, NCI-H358, 72 h, NCI-H358 3D spheroids, serum free, 3 days treatment, replicates N1, N2, read-out: IC50 values): 5.89; pIC50 [1, 14]: 5.89; pIC50 [1, 15]: 5.89; apoptotic cells (%) (MDA-MB-231 cells [6]; [13]): 46.8015% and 19.4293%; apoptotic cells (%) (MDA-MB-231 cells [6]; mean): 33.12%; pIC50 [2, 18]: 5.82; pIC50 [3, 19]: 5.86; pIC50 [3, 20]: 6.08 and 5.72; normalized pERK/ERK ratio % ([7]; 2 h, trametinib 1 μM, AMG-510 1 μM, calmidazolium 20 μM, DT-061 20 μM, combination each 10 μM, fluphenazine mustard 20 μM, replicates N1-N3, listed as camidazolium): 79.2728% and 51.9352% and 71.8958%
OCCN1CCN(CCCN2c3ccccc3Sc3ccc(C(F)(F)F)cc32)CC1 [fluphenazine]			118.298 and 116.824 and 118.266 and 116.921 and 102.254 and 101.937 and 104.771 and 99.5349	109.85	116.984 and 104.752 and 101.237 and 99.6761 and 117.221 and 114.254 and 111.203 and 106.486 and 102.332 and 104.758 and 105.192 and 105.738	107.49	0	0	0	0	2D monolayer DSS3 (HEK-293 EBNA cells; Mean): 9.5; 2D monolayer DSS3 (HEK-293 EBNA cells; replicates N1-N3): 9.9 and 9.2 and 9.4; 2D monolayer DSS3 (MDA-MB-231 cells [8]; Mean): 28.4; 2D monolayer DSS3 (MDA-MB-231 cells [8]; replicates N1-N3): 26.6 and 29.8 and 28.8; effect on the RasG12V-BRET signals (in words) ([5]; K-RasG12V and H-RasG12V biosensors): Neither the PP2A activator DT-061, nor Flu had an effect; 2D monolayer DSS3 (MIA PaCa-2 cells; Mean): 46.37; 2D monolayer DSS3 (MIA PaCa-2 cells; replicates N1-N3): 33.6 and 46.1 and 59.4
CC(C)=C[C@H]1C[C@H](C)[C@]2(CC[C@]3(C)C[C@H]4[C@H](C(=O)C[C@@]4(C)O)/C(C=O)=C\C[C@H]32)O1 [ophiobolin A]				87.26		75.39	7.5 and 2.2	4.85	21.8 and 20.9	21.35	
CC(=O)Nc1cccc(-n2c(=O)n(C3CC3)c(=O)c3c(Nc4ccc(I)cc4F)n(C)c(=O)c(C)c32)c1 [trametinib]											potency relative to Flu-M in MAPK-signaling (pERK) inhibition ([7]; MIA PaCa-2): at least 20 times; normalized pERK/ERK ratio % ([7]; 2 h, trametinib 1 μM, AMG-510 1 μM, calmidazolium 20 μM, DT-061 20 μM, combination each 10 μM, fluphenazine mustard 20 μM, replicates N1-N3): 32.0097% and 10.8438% and 18.176%; normalized pERK/ERK ratio % ([7]; same treatments, mean): 20.34%
CN1CCN(CCCN2c3ccccc3Sc3ccc(C(F)(F)F)cc32)CC1 [triflouperazine, trifluoperazine]	6.60	6.51									pIC50 [1, 14]: 6.16; pIC50 [1, 15]: 6.41 and 6.01; pIC50 [2, 18]: 6.44; pIC50 ([3]; Homo sapiens, MDA-MB-231, 72 h, MDA-MB-231 3D spheroids, serum free, 3 days treatment, replicates N1, N2, read-out: IC50 values): 6.37; pIC50 [3, 19]: 6.23; pIC50 [3, 20]: 6.13
